Assay results as given in patent publication US20220081481A1, “USE OF AGENTS CAPABLE OF INDUCING LC3-ASSOCIATED PHAGOCYTOSIS FOR TREATING SUSTAINED INFLAMMATION IN PATIENTS SUFFERING FROM CHRONIC LIVER DISEASE” (INSERM (INSTITUT NATIONAL DE LA SANTÉ ET DE LA RECHERCHE …, priority 2019, published 2022).
Ends that are not written are not given here.

Test system: CD14+ cells from patients and healthy donors PBMC
Assay: Flow cytometry of IL8+ production in CD14+ cells of PBMC
Type: cell-based, human
Conditions: for number of CD14+IL8+ monocytes: cirrhotic monocytes vs control-treated cells from healthy donors, 10 mM 3-MA, 10 μM DPI, 30 μM N8, 4 hrs, FIG. 1B; for inflammatory signature in blood monocytes: healthy donors and patients, prominent increase in cells from patients, 4 hrs at 37° C., FIG. 1B and 1C
Experimental: FIG. 1: Inhibition of LAP components enhances the inflammatory signature in blood monocytes from patients with cirrhosis. (A). Inverse correlation between circulating C-Reactive Protein (CRP) levels and the number of LC3+ pHrodo+ phagosomes containing E. Coli bioparticles in blood monocytes from patients with cirrhosis (n=14). *p=0.005, r=-0.7 for LC3+ pHrodo+ phagosomes number vs CRP. (B). PBMC were incubated for 4 hrs at 37° C. with either vehicle, 10 mM 3-MA, 10 μM DPI, 30 μM N8 or control mutant […] peptides Percentage of IL8+ production in CD14+ cells from patients (n=8) and healthy donors (n=6) PBMC. (C). RT-PCR analysis of inflammatory gene expression in blood monocytes from healthy donors (n=6-8) and cirrhotic patients (n=6-11). Results are expressed as fold over respective control. *p<0.05, **p<0.001 for healthy vs cirrhotic. Statistical analysis was performed using Spearman correlation test (A), Mann-Whitney (b, for comparison between healthy and cirrhosis) and Wilcoxon matched-pairs signed rank test (B, for treatment). Peripheral blood mononuclear cells (PBMC) and monocyte isolation. PBMC were prepared from the blood of cirrhotic patients and healthy donors, using Ficoll density gradient centrifugation (Ficoll PaqueTM-plus, GE Healthcare, 17-1440-02), as previously described^43. Cell treatment. Human monocytes, THP1-XBlueTM-CD14 (Invivogen, Catalog #[…] THP1-FcγRIIA+-CD14+(kindly provided by Novimmune) monocytes were used. When indicated cells were exposed to either 30 μM chloroquine diphosphate (Sigma, C6628), 10 mM 3-Methyladenine (3-MA, Sigma, M9281-100 mg), 10 mM Diphenyleneiodonium chloride (DPI, Sigma, D2926-10 mg), or 10 mg/ml IVIg (Privigen, 100 mg/ml) for 4 hrs at 37° C., as indicated. […] In some experiments, cells were exposed to the preformed complex (10 μg/ml of mouse anti-hFcγRII mAb (clone AT-10, Santa Cruz, sc-13527) F(ab')2 fragments+20 μg/ml goat anti-mouse anti-kappa F(ab')2 fragments (Southern Biotech, 1052-01) or to 100 μg/ml of anti-hFcγRIIA mAb F(ab')2 fragments (clone IV.3), purified as we previously described^26. Flow cytometry. For surface and intracellular staining, PBMC (1×10^6) were centrifuged at 4° C. at 500 g for 5 min and stained in the dark for 30 min at 4° C. in flow cytometry staining buffer (5% FCS-PBS) containing fluorochrome-conjugated antibodies (APC-CD14, clone HCD14, Biolegend, 325608), CD11b-PE-vio 770 (clone REA592, Miltenyi Biotec, 130-109-287), CD16 Brilliant violet 605 (clone3G8, 302040, Biolegend) and FITC-FcγRIIA (clone […] Technologies, 60012FI). […] Data acquisition was performed using a BD Biosciences LSR Fortessa cytometer and data were analysed using FlowJo analysis software (Tree Star).

N8 peptide: Tat-conjugated peptide of eight N-terminal amino acids (3-10) of p22phox that blocks the Rubicon-p22phox interaction (QIEWAMWA; also: Tat cell-penetrating peptide conjugate, attachment not given here; UniProt P13498 3-10, looked up, fragment)
number of CD14+IL8+ monocytes: significantly higher | inflammatory signature in blood monocytes: enhanced

Cn1cnc(N)c2ncnc1-2 [3-MA, 3-Methyladenine]
number of CD14+IL8+ monocytes: significantly higher | inflammatory signature in blood monocytes: enhanced
